Reference: PMC8286840, “Identifying SARS-CoV-2 antiviral compounds by screening for small molecule inhibitors of Nsp3 papain-like protease” (Biochemical Journal, 2021)
Where a name gives a salt, the structure may show the parent alone. Read-outs that look alike come from different tables or passages of the source. Where a SMILES comes first, the peptide text is derived from it.

Tests used:
[1] = biological target: T1, SARS-CoV-2 PLpro (nsp3 1564–1878) (Severe acute respiratory syndrome coronavirus 2, UniProt P0DTD1); assay: biochemical; parameters: FRET-quenched peptide (Pro3) cleavage by PLpro, 10 min pre-incubation, slope over 20 min, normalised to no-compound control; conditions: read-out: % of control remaining
[2] = biological target: T1, SARS-CoV-2 PLpro (nsp3 1564–1878); assay: biochemical; parameters: FRET-quenched peptide (Pro3) cleavage by PLpro, 10 min pre-incubation, slope over 20 min, normalised to no-compound control; conditions: read-out: % of control remaining; remark: listed apart in the source

## CCCCCCCCCC(=O)O [Decanoic acid]
[1]; Well no.=4540, low concentration screen
  remaining activity at 1.25 µM: 93.6%
[1]; Well no.=6973, low concentration screen
  remaining activity at 1.25 µM: 105%
[2]; Well no.=4540, high concentration screen
  remaining activity at 3.75 µM: 95.8%
[2]; Well no.=6973, high concentration screen
  remaining activity at 3.75 µM: 107%

## CC(C[N+](C)(C)C)OC(N)=O (stereo not drawn) [Carbamyl-beta-methylcholine]
[1]; Well no.=1736, low concentration screen
  remaining activity at 1.25 µM: 95.2%
[2]; Well no.=1736, high concentration screen
  remaining activity at 3.75 µM: 94.9%

## COc1cccc(C(=O)NCCN2CCN(c3ccc(Cl)cc3)CC2)c1 [N-(2-[4-(4-Chlorophenyl)piperazin-1-yl]ethyl)-3-methoxybenzamide]
[1]; Well no.=232, low concentration screen
  remaining activity at 1.25 µM: 99.5%
[2]; Well no.=232, high concentration screen
  remaining activity at 3.75 µM: 99.4%

## C=CC(=O)Nc1ccc2ncnc(Nc3ccc(OCc4cccc(F)c4)c(Cl)c3)c2c1 [AST-1306]
[1]; Well no.=5142, low concentration screen
  remaining activity at 1.25 µM: 101%
[2]; Well no.=5142, high concentration screen
  remaining activity at 3.75 µM: 100%

## NCCSSCCN [Cystamine dihydrochloride]
[1]; Well no.=280, low concentration screen
  remaining activity at 1.25 µM: 97%
[2]; Well no.=280, high concentration screen
  remaining activity at 3.75 µM: 99.9%

## COC(=O)CCc1ccc(OCC(O)CNC(C)C)cc1 (centres unmarked) [Esmolol (hydrochloride)]
[1]; Well no.=6651, low concentration screen
  remaining activity at 1.25 µM: 105%
[2]; Well no.=6651, high concentration screen
  remaining activity at 3.75 µM: 107%

## Cc1nc(C(=O)N2CCC[C@H]2Cc2nnc(-c3ccccc3)o2)c(-c2ccccc2F)s1 [2-[((2S)-1-{[5-(2-fluorophenyl)-2-methyl-1,3-thiazol-4-yl]carbonyl}-2-pyrrolidinyl)methyl]-5-phenyl-1,3,4-oxadiazole]
[1]; Well no.=5406, low concentration screen
  remaining activity at 1.25 µM: 90.5%
[2]; Well no.=5406, high concentration screen
  remaining activity at 3.75 µM: 102%

## c1ccc(CC2=NCCN2)cc1 [Tolazoline (hydrochloride)]
[1]; Well no.=6231, low concentration screen
  remaining activity at 1.25 µM: 104%
[2]; Well no.=6231, high concentration screen
  remaining activity at 3.75 µM: 107%

## COc1ccc(NS(=O)(=O)c2sc3ccc(Cl)cc3c2C)cc1N1CCNCC1 [SB 271046 (Hydrochloride)]
[1]; Well no.=7863, low concentration screen
  remaining activity at 1.25 µM: 102%
[2]; Well no.=7863, high concentration screen
  remaining activity at 3.75 µM: 101%

## CC[C@@H](CO)NC(=O)[C@@H]1C=C2c3cccc4[nH]cc(c34)C[C@H]2N(C)C1 [Methylergonovine maleate]
[1]; Well no.=1114, low concentration screen
  remaining activity at 1.25 µM: 94.9%
[1]; Well no.=3250, low concentration screen
  remaining activity at 1.25 µM: 98.4%
[2]; Well no.=1114, high concentration screen
  remaining activity at 3.75 µM: 90.6%
[2]; Well no.=3250, high concentration screen
  remaining activity at 3.75 µM: 98%

## O=C(Nc1cccc(Cl)c1)Nc1ncc(CCNc2ncnc3ccsc23)s1 [SNS-314]
[1]; Well no.=2893, low concentration screen
  remaining activity at 1.25 µM: 101%
[2]; Well no.=2893, high concentration screen
  remaining activity at 3.75 µM: 101%

## C[C@@H]1O[C@@H](Oc2c(-c3cc(O)c(O)c(O)c3)oc3cc(O)cc(O)c3c2=O)[C@H](O)[C@H](O)[C@H]1O [Myricitrin]
[1]; Well no.=3343, low concentration screen
  remaining activity at 1.25 µM: 95.5%
[2]; Well no.=3343, high concentration screen
  remaining activity at 3.75 µM: 97.9%

## COC(=O)C1=C(C)NC(C)=C(C(=O)OCC(C)C)C1c1ccccc1[N+](=O)[O-] (centres unmarked) [Nisoldipine]
[1]; Well no.=1796, low concentration screen
  remaining activity at 1.25 µM: 100%
[2]; Well no.=1796, high concentration screen
  remaining activity at 3.75 µM: 100%

## OC[C@@H]1[C@@H](O)[C@H](O)[C@H]2[C@@H](O)CCN21
[1]; Well no.=3085, low concentration screen
  remaining activity at 1.25 µM: 104%
[2]; Well no.=3085, high concentration screen
  remaining activity at 3.75 µM: 105%

## Cc1ccc2c(c1)C1(CCN(CCc3nc(-c4ccccc4)oc3C)CC1)OC(=O)N2 [6-methyl-1'-(2-(5-methyl-2-phenyloxazol-4-yl)ethyl)spiro[benzo[d][1,3]oxazine-4,4'-piperidin]-2(1H)-one]
[1]; Well no.=5915, low concentration screen
  remaining activity at 1.25 µM: 93.5%
[2]; Well no.=5915, high concentration screen
  remaining activity at 3.75 µM: 93.6%

## Cn1cnc2c(NCc3ccccc3)nc(NCCO)nc21 [Olomoucine - 6-(Benzylamino)-2-(2-hydroxyethylamino)-9-methylpurine]
[1]; Well no.=2382, low concentration screen
  remaining activity at 1.25 µM: 101%
[2]; Well no.=2382, high concentration screen
  remaining activity at 3.75 µM: 102%

## CCOC(=O)/C=C(C)/C=C/C=C(C)/C=C/c1c(C)cc(OC)c(C)c1C [Etretinate]
[1]; Well no.=2070, low concentration screen
  remaining activity at 1.25 µM: 102%
[2]; Well no.=2070, high concentration screen
  remaining activity at 3.75 µM: 101%

## CN1CC[C@@]2(C)c3cc(O)ccc3N(C)[C@@H]12 [(-)-Eseroline fumarate]
[1]; Well no.=751, low concentration screen
  remaining activity at 1.25 µM: 96.8%
[2]; Well no.=751, high concentration screen
  remaining activity at 3.75 µM: 93.5%

## NC(N)=NCCNS(=O)(=O)c1cccc2cnccc12 [HA-1004 hydrochloride]
[1]; Well no.=522, low concentration screen
  remaining activity at 1.25 µM: 101%
[2]; Well no.=522, high concentration screen
  remaining activity at 3.75 µM: 99.3%

## C=C1[C@@H](C)[C@H]2[C@H](Cc3ccccc3)NC(=O)[C@]23[C@H](OC(C)=O)/C=C/[C@@](C)(O)C(=O)[C@@H](C)C/C=C/[C@H]3[C@@H]1O [Cytochalasin D]
[1]; Well no.=3581, low concentration screen
  remaining activity at 1.25 µM: 98.2%
[2]; Well no.=3581, high concentration screen
  remaining activity at 3.75 µM: 99.7%

## Nc1ncnc2c1ncn2[C@@H]1O[C@H](CO)[C@@H](O)[C@@H]1O [Vidarabine]
[1]; Well no.=2046, low concentration screen
  remaining activity at 1.25 µM: 107%
[1]; Well no.=8006, low concentration screen
  remaining activity at 1.25 µM: 93.6%
[2]; Well no.=2046, high concentration screen
  remaining activity at 3.75 µM: 110%
[2]; Well no.=8006, high concentration screen
  remaining activity at 3.75 µM: 95.5%

## CN(C)CCc1c[nH]c2ccc(C[C@H]3COC(=O)N3)cc12 [Zolmitriptan]
[1]; Well no.=1885, low concentration screen
  remaining activity at 1.25 µM: 98%
[1]; Well no.=6507, low concentration screen
  remaining activity at 1.25 µM: 98.3%
[2]; Well no.=1885, high concentration screen
  remaining activity at 3.75 µM: 97.6%
[2]; Well no.=6507, high concentration screen
  remaining activity at 3.75 µM: 98.2%

## COc1cc2ncnc(Nc3cccc(Cl)c3)c2cc1OC [Tyrphostin AG 1478]
[1]; Well no.=1191, low concentration screen
  remaining activity at 1.25 µM: 100%
[2]; Well no.=1191, high concentration screen
  remaining activity at 3.75 µM: 100%

## CCCC(C)(C)c1ccc2c(c1)OC(C)(C)[C@@H]1CC=C(C)C[C@@H]21 [JWH-133]
[1]
  remaining activity at 1.25 µM: 102%
[2]
  remaining activity at 3.75 µM: 104%

## CN(C)[C@@H]1C(O)=C(C(N)=O)C(=O)[C@@]2(O)C(O)=C3C(=O)c4c(O)cccc4[C@@](C)(O)[C@H]3C[C@@H]12 [Tetracycline]
[1]; Well no.=1948, low concentration screen
  remaining activity at 1.25 µM: 95.4%
[2]; Well no.=1948, high concentration screen
  remaining activity at 3.75 µM: 93.7%

## CC(=O)N1CCN(C(=O)/C=C/c2ccc(Sc3ccccc3C(C)C)c([N+](=O)[O-])c2)CC1 [4-[(1E)-3-(4-acetyl-1-piperazinyl)-3-oxo-1-propenyl]-2-nitrophenyl 2-isopropylphenyl sulfide]
[1]; Well no.=5662, low concentration screen
  remaining activity at 1.25 µM: 94.9%
[2]; Well no.=5662, high concentration screen
  remaining activity at 3.75 µM: 94.5%

## Cc1ccnc(NS(=O)(=O)c2ccc(N)cc2)n1 [Sulfamerazine]
[1]; Well no.=4941, low concentration screen
  remaining activity at 1.25 µM: 92.6%
[1]; Well no.=8644, low concentration screen
  remaining activity at 1.25 µM: 94.8%
[2]; Well no.=4941, high concentration screen
  remaining activity at 3.75 µM: 83.3%
[2]; Well no.=8644, high concentration screen
  remaining activity at 3.75 µM: 92.4%

## C[N+]1(C)CCC(=C(c2ccccc2)c2ccccc2)CC1 [Diphemanil Methylsulfate]
[1]; Well no.=5118, low concentration screen
  remaining activity at 1.25 µM: 109%
[2]; Well no.=5118, high concentration screen
  remaining activity at 3.75 µM: 108%

## Cc1cc(Nc2cc(N3CCN(C)CC3)nc(/C=C/c3ccccc3)n2)n[nH]1 [ENMD-2076]
[1]; Well no.=5093, low concentration screen
  remaining activity at 1.25 µM: 102%
[2]; Well no.=5093, high concentration screen
  remaining activity at 3.75 µM: 105%

## CC(C)C[C@H](N)C(=O)N[C@@H](Cc1ccccc1)C(=O)O [Leucyl-phenylalanine] (H-Leu-Phe-OH)
[1]; Well no.=6291, low concentration screen
  remaining activity at 1.25 µM: 104%
[1]; Well no.=8754, low concentration screen
  remaining activity at 1.25 µM: 87.2%
[2]; Well no.=6291, high concentration screen
  remaining activity at 3.75 µM: 102%
[2]; Well no.=8754, high concentration screen
  remaining activity at 3.75 µM: 87.4%

## CC(C)=CCC[C@](C)(O)[C@H]1CC[C@]2(C)[C@@H]1[C@H](O)C[C@@H]1[C@@]3(C)CC[C@H](O)C(C)(C)[C@@H]3CC[C@]12C [(20S)-Protopanaxadiol]
[1]; Well no.=6300, low concentration screen
  remaining activity at 1.25 µM: 106%
[2]; Well no.=6300, high concentration screen
  remaining activity at 3.75 µM: 99.5%
